Calls of active or inactive are those of the source. The calls are words filed in the database; no cut-off is given here.

The term IC50 denotes the concentration that inhibits the measured activity by half. For orientation: Kd means the concentration at which binding is half-saturated.

The test system of assay [1] is Epidermal growth factor receptor (Homo sapiens), P00533 [L858R,T790M]. Briefly: Allosteric inhibition of human N-terminal GST-tagged EGFR double T790M/L858R mutant (696 to 1022 residues) expressed in Sf21 insect cells assessed as change in inhibition rate in presence of 1 to 1000 uM ATP by HTRF assay. (In general: Time-resolved FRET reads energy transfer from a long-lived donor to a nearby acceptor.)

For assay [2], the target named is Epidermal growth factor receptor (Homo sapiens, UniProt P00533, C797S/L858R/T790M). The experiment in a line: Inhibition of human N-terminal GST-tagged EGFR triple T790M/L858R/C797S mutant (696 to 1022 residues) expressed in Sf21 insect cells by HTRF assay.
For assay [3], the target named is Epidermal growth factor receptor (Homo sapiens, UniProt P00533, L858R). The experiment in a line: Inhibition of human N-terminal GST-tagged EGFR L858R mutant (696 to 1022 residues) expressed in Sf21 insect cells by HTRF assay.
Assay [4] concerns the target T1, STE20-like serine/threonine-protein kinase (Homo sapiens, UniProt Q9H2G2). Briefly: Inhibition of tracer 236 binding to recombinant full length human GST-tagged SLK expressed in baculovirus expression system measured after 60 mins by Lanthascreen assay relative to control.
Assay [5] deals with Epidermal growth factor receptor (Homo sapiens, UniProt P00533). Briefly: Inhibition of human N-terminal GST-tagged EGFR (696 to 1022 residues) expressed in Sf21 insect cells by HTRF assay.
Assay [6] has as its target T1, STE20-like serine/threonine-protein kinase. The experiment in a line: Binding affinity to wild-type human partial length SLK (S14 to A307 residues) expressed in bacterial expression system assessed as residual binding level at 10 uM by Kinomescan method.
The target of assay [7] is Mast/stem cell growth factor receptor Kit (Homo sapiens, UniProt P10721, V559D/V654A). Briefly: Inhibition of recombinant human His-tagged KIT V559D/V654A double mutant expressed in baculovirus expression system at 10 uM by kinomescan assay.
Assay [8] deals with Epidermal growth factor receptor (Homo sapiens, UniProt P00533, L858R/T790M). The experiment in a line: Inhibition of human N-terminal GST-tagged EGFR double T790M/L858R mutant (696 to 1022 residues) expressed in Sf21 insect cells by HTRF assay.
Epidermal growth factor receptor (Homo sapiens, UniProt P00533, L858R/T790M), sequence (P00533 25-1210 T790M/L858R limits assumed): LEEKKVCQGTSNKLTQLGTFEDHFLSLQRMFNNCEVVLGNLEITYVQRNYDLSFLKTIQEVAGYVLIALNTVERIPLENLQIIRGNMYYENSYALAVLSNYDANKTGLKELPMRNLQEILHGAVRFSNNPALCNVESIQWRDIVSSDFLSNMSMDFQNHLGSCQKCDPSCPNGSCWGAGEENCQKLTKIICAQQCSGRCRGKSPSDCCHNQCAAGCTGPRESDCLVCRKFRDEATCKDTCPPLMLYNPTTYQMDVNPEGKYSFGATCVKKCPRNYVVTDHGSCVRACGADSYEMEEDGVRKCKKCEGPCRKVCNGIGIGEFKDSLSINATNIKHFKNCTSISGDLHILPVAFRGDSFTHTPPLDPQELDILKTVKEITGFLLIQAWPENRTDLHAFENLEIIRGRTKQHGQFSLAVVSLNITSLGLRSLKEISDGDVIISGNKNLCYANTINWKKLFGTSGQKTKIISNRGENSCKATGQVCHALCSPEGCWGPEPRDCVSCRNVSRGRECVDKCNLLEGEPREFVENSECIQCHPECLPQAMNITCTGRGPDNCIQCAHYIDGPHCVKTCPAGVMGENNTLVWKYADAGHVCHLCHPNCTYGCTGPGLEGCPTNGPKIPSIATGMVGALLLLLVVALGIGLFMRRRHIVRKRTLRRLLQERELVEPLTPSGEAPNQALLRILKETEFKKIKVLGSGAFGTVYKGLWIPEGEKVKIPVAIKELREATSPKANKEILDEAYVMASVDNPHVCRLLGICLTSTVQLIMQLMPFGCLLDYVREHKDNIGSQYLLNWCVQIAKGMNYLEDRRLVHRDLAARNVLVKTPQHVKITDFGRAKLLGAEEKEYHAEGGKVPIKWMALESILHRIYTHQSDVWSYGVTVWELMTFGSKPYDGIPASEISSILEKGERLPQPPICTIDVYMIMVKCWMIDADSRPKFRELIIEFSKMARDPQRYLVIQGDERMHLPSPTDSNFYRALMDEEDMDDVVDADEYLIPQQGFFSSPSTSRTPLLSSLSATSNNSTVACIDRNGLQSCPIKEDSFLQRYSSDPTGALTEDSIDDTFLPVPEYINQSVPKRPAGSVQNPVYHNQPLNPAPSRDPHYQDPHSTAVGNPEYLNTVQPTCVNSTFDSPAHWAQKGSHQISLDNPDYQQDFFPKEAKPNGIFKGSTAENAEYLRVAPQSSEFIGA

T1 sequence (Q9H2G2 whole entry, the tested form may be a part): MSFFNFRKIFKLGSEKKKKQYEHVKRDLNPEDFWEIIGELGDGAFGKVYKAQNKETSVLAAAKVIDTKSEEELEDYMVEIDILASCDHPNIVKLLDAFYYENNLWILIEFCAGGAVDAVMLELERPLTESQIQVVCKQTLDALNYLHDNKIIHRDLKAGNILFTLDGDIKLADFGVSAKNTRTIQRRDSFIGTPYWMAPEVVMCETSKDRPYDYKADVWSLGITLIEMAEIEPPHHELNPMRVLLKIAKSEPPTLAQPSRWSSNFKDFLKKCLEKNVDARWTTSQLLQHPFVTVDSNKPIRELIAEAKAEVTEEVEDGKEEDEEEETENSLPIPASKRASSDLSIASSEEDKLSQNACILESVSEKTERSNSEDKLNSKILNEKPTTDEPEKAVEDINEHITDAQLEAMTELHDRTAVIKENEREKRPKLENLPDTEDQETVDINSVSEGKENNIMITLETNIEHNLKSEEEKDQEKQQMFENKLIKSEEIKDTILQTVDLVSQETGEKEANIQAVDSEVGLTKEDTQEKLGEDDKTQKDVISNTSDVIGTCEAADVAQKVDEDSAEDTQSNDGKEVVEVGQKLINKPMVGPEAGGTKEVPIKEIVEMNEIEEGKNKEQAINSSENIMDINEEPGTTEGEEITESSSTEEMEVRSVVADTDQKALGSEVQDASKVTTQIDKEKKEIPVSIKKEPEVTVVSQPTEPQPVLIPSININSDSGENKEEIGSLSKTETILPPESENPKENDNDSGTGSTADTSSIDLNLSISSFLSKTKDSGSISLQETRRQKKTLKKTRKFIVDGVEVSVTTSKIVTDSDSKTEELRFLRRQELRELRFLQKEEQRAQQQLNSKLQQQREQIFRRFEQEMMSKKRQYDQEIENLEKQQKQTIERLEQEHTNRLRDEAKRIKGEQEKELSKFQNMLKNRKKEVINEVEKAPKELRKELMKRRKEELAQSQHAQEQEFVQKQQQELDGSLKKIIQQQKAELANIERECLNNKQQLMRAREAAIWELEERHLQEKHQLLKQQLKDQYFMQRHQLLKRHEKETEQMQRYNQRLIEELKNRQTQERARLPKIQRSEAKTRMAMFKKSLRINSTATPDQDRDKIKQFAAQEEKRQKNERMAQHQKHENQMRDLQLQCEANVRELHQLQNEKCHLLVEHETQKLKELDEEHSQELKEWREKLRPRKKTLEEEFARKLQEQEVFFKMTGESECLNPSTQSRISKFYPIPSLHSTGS
Epidermal growth factor receptor (Homo sapiens, UniProt P00533), sequence (P00533 whole entry, the tested form may be a part): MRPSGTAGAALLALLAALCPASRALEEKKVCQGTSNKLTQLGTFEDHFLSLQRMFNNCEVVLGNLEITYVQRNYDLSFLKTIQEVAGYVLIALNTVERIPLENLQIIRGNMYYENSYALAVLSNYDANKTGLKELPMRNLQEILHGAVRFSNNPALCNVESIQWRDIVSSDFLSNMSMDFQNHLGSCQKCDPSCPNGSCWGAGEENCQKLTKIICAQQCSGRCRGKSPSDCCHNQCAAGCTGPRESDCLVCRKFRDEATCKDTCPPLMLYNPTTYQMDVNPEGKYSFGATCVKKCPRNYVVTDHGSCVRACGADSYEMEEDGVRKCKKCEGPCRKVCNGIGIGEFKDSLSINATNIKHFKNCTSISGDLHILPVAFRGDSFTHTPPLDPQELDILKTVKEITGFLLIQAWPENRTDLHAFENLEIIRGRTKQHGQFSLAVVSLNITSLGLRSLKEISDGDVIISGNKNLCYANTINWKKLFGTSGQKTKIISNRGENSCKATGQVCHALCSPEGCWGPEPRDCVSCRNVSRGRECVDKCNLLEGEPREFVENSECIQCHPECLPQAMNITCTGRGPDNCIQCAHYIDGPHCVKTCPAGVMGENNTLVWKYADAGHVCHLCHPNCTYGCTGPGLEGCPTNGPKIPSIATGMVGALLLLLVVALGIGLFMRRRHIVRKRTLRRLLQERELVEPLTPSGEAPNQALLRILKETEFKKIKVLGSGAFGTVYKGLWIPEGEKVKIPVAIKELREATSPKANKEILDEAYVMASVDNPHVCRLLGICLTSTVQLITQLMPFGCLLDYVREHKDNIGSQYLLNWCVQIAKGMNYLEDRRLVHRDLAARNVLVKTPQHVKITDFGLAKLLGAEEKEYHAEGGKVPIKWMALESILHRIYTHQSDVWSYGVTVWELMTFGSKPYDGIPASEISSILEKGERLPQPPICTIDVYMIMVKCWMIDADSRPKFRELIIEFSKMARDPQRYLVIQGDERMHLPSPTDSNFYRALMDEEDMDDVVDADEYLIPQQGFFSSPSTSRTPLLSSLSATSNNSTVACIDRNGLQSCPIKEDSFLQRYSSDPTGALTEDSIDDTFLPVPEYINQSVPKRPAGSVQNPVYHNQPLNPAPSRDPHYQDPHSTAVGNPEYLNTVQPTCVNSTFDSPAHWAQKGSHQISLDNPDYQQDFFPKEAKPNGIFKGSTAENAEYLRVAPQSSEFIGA
Epidermal growth factor receptor (Homo sapiens, UniProt P00533, C797S/L858R/T790M), sequence (P00533 25-1210 T790M/C797S/L858R limits assumed): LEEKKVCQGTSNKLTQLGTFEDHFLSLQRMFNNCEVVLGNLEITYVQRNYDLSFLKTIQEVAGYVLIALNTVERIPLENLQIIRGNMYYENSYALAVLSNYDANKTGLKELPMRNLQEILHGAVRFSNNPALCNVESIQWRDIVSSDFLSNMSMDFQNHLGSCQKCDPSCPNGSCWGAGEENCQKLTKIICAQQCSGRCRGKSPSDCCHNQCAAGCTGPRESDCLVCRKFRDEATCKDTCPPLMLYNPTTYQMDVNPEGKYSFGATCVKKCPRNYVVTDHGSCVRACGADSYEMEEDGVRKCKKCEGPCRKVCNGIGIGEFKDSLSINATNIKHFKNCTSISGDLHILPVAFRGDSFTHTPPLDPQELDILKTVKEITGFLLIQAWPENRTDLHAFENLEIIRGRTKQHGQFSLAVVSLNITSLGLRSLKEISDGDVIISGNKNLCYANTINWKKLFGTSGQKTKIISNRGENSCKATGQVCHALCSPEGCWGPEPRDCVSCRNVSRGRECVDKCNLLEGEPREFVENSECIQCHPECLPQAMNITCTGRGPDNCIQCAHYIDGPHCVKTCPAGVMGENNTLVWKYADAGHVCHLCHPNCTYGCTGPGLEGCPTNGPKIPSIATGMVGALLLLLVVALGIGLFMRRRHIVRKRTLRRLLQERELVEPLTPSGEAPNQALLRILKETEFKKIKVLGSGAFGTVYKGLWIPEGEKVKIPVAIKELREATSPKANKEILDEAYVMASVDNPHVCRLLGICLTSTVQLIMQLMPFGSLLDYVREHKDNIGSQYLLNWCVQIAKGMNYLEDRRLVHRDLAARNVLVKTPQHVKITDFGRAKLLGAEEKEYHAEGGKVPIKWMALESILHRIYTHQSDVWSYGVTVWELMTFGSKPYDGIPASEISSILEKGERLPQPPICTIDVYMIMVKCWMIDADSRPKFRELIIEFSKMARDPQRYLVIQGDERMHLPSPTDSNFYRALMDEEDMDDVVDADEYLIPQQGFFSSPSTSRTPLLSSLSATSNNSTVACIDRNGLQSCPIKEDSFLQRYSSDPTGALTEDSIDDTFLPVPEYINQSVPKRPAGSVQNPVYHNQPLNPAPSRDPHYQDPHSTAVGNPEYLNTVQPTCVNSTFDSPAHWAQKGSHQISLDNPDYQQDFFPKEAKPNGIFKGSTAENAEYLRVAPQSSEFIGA

`CN1CCN(c2ccc(Oc3ccc4c(c3)C(=O)N(Cc3ccccc3)c3cc(F)ccc3N4)cc2)CC1`: the inhibition result in assay [1] was “inactive”. Moreover, the 50% inhibitory concentration (IC50) in assay [2] was 0.013 µM; in assay [3], 0.154 µM; in assay [4] it was above 10 µM; in assay [5], above 1 µM; in assay [8] it was 0.011 µM. Moreover, the equilibrium dissociation constant (Kd) in assay [6] and in assay [7] was above 10 µM in each case.

Take `O=C1c2cc(-c3ccc(N4CCNCC4)cc3)ccc2Nc2ccc(F)cc2N1Cc1ccccc1`: the half-maximal inhibitory concentration (IC50) in assay [2] was 0.019 µM; in assay [3], 0.15 µM; in assay [5], above 1 µM; in assay [8], 0.031 µM.
